Reference: US10532113B2, “Polymeric systems and uses thereof in theranostic applications” (Ramot at Tel-Aviv University Ltd., priority 2014, dated 2020)

Assays:
[1] = tested on: murine 4T1 adenocarcinoma cells; experiment: Cell viability assay, PGA-PTX-Cy5 study, 4T1 cells; assay type: cell-based; settings: Mus musculus, 72 hours incubation, read-out: IC50, proliferation of 4T1 cells
Method: (§1) 4T1 cells (8,000 cells/wells), WM239A cells (15,000 cells/well) and MDA-MB-231 cells (10,000/well) were plated onto 24-well culture in RPMI supplemented with 10% FBS, or in DMEM supplemented with 10% FBS respectively, and incubated for 24 hours (37° C.; 5% CO2). The medium was then replaced with RPMI 1640 supplemented with 10% FBS or DMEM supplemented with 10% FBS.
(§2) Cells were exposed to PTX and PTX-bound conjugates at serial dilutions, at equivalent dose of free PTX. Number of viable cells was counted by a Z1 Coulter Counter® Cell and Particle Counter (Beckman Coulter®) following 72 hours of incubation.

HUVEC [2] = experiment: Cell viability assay, HPMA conjugate study, HUVEC proliferation; assay type: cell-based; settings: Homo sapiens, 96 hours incubation
Method: (§3) 4T1 cells (3,000 cells/well), HUVEC (10,000 cells/well) and MDA-MB-231 cells (10,000 cells/well) were plated onto 24-well culture plates in RPMI supplemented with 2% FBS, EBM-2 supplemented with 5% FBS or in DMEM supplemented with 10% FBS respectively, and incubated for 24 hours (37° C.; 5% CO2). The medium was then replaced with RPMI 1640 supplemented with 10% FBS, EGM-2 or DMEM supplemented with 10% FBS. Cells were exposed to PTX and PTX bound-conjugates at serial dilutions, at equivalent dose of the free PTX. Number of viable cells was counted by a Z1 Coulter Counter® Cell and Particle Counter (Beckman Coulter®) following 96 hours of incubation.

[3] = tested on: human WM239A melanoma cells; experiment: Cell viability assay, PGA-PTX-Cy5 study, WM239A cells; assay type: cell-based; settings: 72 hours incubation, read-out: IC50, proliferation of WM239A cells
Method: as §1, §2

HUVEC [4] = experiment: HUVEC migration scratch assay; assay type: cell-based, human; settings: PTX-equivalent concentration 20 nM; 12 h
Method: The migration of HUVEC in the presence of PGA-PTX-Cy5 conjugate was evaluated using the scratch assay. The method is based on the observation that, upon creation of a new artificial gap, so called “scratch”, on a confluent cell monolayer, the cells on the edge of the newly created gap will move toward the opening to close the “scratch” until new cell-cell contacts are established again. […] At time zero (t=0) images were taken by phase-contrast microscope in a reference point. Following another 12 h of incubation, images of the reference point were taken again. The samples were analyzed quantitatively by ImageJ software.

[5] = tested on: human MDA-MB-231 mammary adenocarcinoma cells; experiment: Cell viability assay, HPMA conjugate study, MDA-MB-231 cells; assay type: cell-based; settings: 72 hours incubation (FIG. 10C), read-out: IC50, proliferation of MDA-MB-231 cells
Method: as §3, with “Number of viable cells was counted by a Z1 Coulter Counter® Cell and Particle Counter (Beckman Coulter®) following 96 hours of incubation.” left out

[6] = tested on: murine 4T1 mammary adenocarcinoma cells; experiment: Cell viability assay, HPMA conjugate study, 4T1 cells; assay type: cell-based; settings: Mus musculus, 96 hours incubation, read-out: IC50, proliferation of 4T1 cells
Method: as §3

[7] = tested on: human MDA-MB-231 mammary adenocarcinoma cells; experiment: Cell viability assay, PGA-PTX-Cy5 study, MDA-MB-231 cells; assay type: cell-based; settings: 72 hours incubation, read-out: IC50, proliferation of MDA-MB-231 cells
Method: as §1, §2

CC(=O)O[C@H]1C(=O)[C@@]2(C)[C@H]([C@H](OC(=O)c3ccccc3)[C@]3(O)C[C@H](OC(=O)[C@H](O)[C@@H](NC(=O)c4ccccc4)c4ccccc4)C(C)=C1C3(C)C)[C@]1(OC(C)=O)CO[C@@H]1C[C@@H]2O [PTX, Paclitaxel]
IC50 [1]: ~60 nM | IC50 (HUVEC [2]): ~2 nM | IC50 [3]: ~5 nM | HUVEC migration, gap closure (HUVEC [4]): 20% | IC50 [5]: ~0.5 nM | IC50 [6]: ~35 nM | IC50 [7]: ~2 nM
